Measurements taken from US10570177B2, “P3 peptidylic inhibitors for treating CAG-repeat RNA toxicity in polyglutamine diseases” (The Chinese University of Hong Kong, priority 2017, dated 2020).
Values joined by “and” are separate entries in the source; they are usually repeats but may differ in a detail not shown here. Equal entries are not always repeated. “Also recorded” adds a separate entry of the source. Starred links: 1 amine or outer side, 2 acyl side, 3 side chain; linkers in the order of their positions; H or OH if unused. Non-standard residues stand in square brackets, D forms with d. No end group written: not given here. gPNA = guanine base linked to N-(2-aminoethyl)-glycine backbone, Nc1nc2c(ncn2CC(=O)N(CCN[*:1])CC(=O)[*:2])c(=O)[nH]1; tPNA = thymine base linked to N-(2-aminoethyl)-glycine backbone, Cc1cn(CC(=O)N(CCN[*:1])CC(=O)[*:2])c(=O)[nH]c1=O; cPNA = cytosine base linked to N-(2-aminoethyl)-glycine backbone, Nc1ccn(CC(=O)N(CCN[*:1])CC(=O)[*:2])c(=O)n1; aPNA = adenine base linked to N-(2-aminoethyl)-glycine backbone, Nc1ncnc2c1ncn2CC(=O)N(CCN[*:1])CC(=O)[*:2]; hArg = N=C(N)NCCCC[C@H](N)C(=O)O; Orn = NCCC[C@H](N)C(=O)O; Dap = NC[C@H](N)C(=O)O; ∗∗ = not defined here

tested on: DsRedCAG100 flies; assay: Pseudopupil assay in DsRedCAG100 Drosophila (expanded CAG RNA neurodegeneration); assay type: in vivo; settings: 1 μM treatment; 12 day-old flies
From the text: Here the DsRedCAG0/100Drosophila model was utilized to investigate the suppressive effects of the P3 analogs on RNA toxicity. In this model, the CAG repeat is located in the 3′ untranslated region of the DsRed reporter gene-=. The transcribed expanded CAG RNA is not translated into polyQ protein, and thus the toxicity is solely attributed to the expression of DsRedCAG100 RNA. In brief, the expression of expanded CAG RNA causes severe retinal degeneration in the animal that can be quantified by a pseudopupil assay^7. Inhibitors that can suppress neurotoxicity will result in the recovery of the number of rhabdomeres within the ommatidium. To test the derivatives, third instar larvae were fed different amounts of peptide dissolved in sucrose solution for 2 hr and then allowed to culture in standard fly food until the flies were 12 days old, at which time they were sacrificed for the pseudopupil assay.
Flies were raised at 21.5° C. on cornmeal medium supplemented with dry yeast. Fly lines bearing UAS-DsRedCAG0 and UAS-DsRedCAG100 were kind gifts of Professor Nancy Bonini (University of Pennsylvania, USA). The gmr-GAL4 fly line was obtained from Bloomington Drosophila Stock Center. For pseudopupil assay, third instar larvae were fed with various amount of respective peptides dissolved in 2% sucrose solution for 2 hr and then continued to culture in standard fly food at 21.5° C.^38. Pseudopupil assay was performed on 12 day-old adult flies as mentioned previously^39. Images were captured by SPOT Insight CCD camera controlled by the SPOT Advanced software (Diagnostic instruments Inc.). Image processing was performed using the Adobe Photoshop CS software (Adobe). Each experiment was repeated at least 3 times (n=10 fly heads), and consistent results were obtained. For viability test of wild-type flies from egg to adult stage, eggs born within 5 hr were collected and cultured in fly food containing 10 or 50 μM of respective peptides at 21.5° C. Viability from egg-to-adult was calculated as the number of adult flies collected divided by the number of eggs examined. Each experiment was repeated for three times (at least 130 eggs were examined in each group). Two batches of independently synthesized peptides were used in the experiments.

Row | Substance | pseudopupil score
1 | DGRSRGIAYIEFK [P3V5] | 3.64±0.22

same assay, conditions: DsRedCAG100 flies, in words

Row | Substance | suppression of neurotoxicity / retinal degeneration
2 | DGRSRGIAYIEFK [P3V5] | significantly suppressed neurotoxicity

target: MJDCAG78 RNA; assay: Isothermal titration calorimetry binding assay, expanded MJDCAG78 RNA; settings: ITC at 25° C.; 0.7 mM peptide titrated into 0.5 μM MJDCAG78 RNA; one binding site model; mean ± S.E.M.
Procedure: Experiments were carried out using a MicroCal iTC200 isothermal titration calorimeter (GE Healthcare) at 25° C. Data were analyzed using the Origin® scientific plotting software version 7 (Microcal Software Inc.). All RNAs and peptides were dissolved in binding buffer (20 mM MOPS, pH 7.0; 300 mM NaCl) and 0.7 mM of peptide was titrated into 0.5 μM of RNA for each experiment. The concentration of RNA was estimated with appropriate extinction coefficients at 260 nm on a Nanodrop 2000 (Thermo Scientific). A reference power of 8 μcal/s was used with an initial 0.5 μl of injection of peptide followed by 2 μl for all subsequent titrations points with a 60 sec initial equilibrium delay and 150 sec pause between injections. The samples were stirred at a speed of 1000 rpm throughout the experiment. The thermal titration data were fitted to the ‘one binding site model’ to determine the dissociation constant (KD). Each experiment was repeated at least 3 times with consistent results obtained.

Row | Substance | KD | Kd
3 | Ac-Asp-Gly-(Dap)-Ser-Lys-Gly-Ile-Ala-Tyr-Ile-Glu-Phe-Lys-NH2 (Ac-DG[Dap]SKGIAYIEFK-NH2; SMILES CC[C@H](C)[C@H](NC(=O)CNC(=O)[C@H](CCCCN)NC(=O)[C@H](CO)NC(=O)[C@H](CN)NC(=O)CNC(=O)[C@H](CC(=O)O)NC(C)=O)C(=O)N[C@@H](C)C(=O)N[C@@H](Cc1ccc(O)cc1)C(=O)N[C@H](C(=O)N[C@@H](CCC(=O)O)C(=O)N[C@@H](Cc1ccccc1)C(=O)N[C@@H](CCCCN)C(N)=O)[C@@H](C)CC) [P3V18] | No binding | 
4 | Ac-Asp-Gly-(Orn)-Ser-Lys-Gly-Ile-Ala-Tyr-Ile-Glu-Phe-Lys-NH2 (Ac-DG[Orn]SKGIAYIEFK-NH2) [P3V16] | No binding | 
5 | Ac-Asp-Gly-(hArg)-Ser-Lys-Gly-Ile-Ala-Tyr-Ile-Glu-Phe-Lys-NH2 (Ac-DG[hArg]SKGIAYIEFK-NH2; SMILES CC[C@H](C)[C@H](NC(=O)CNC(=O)[C@H](CCCCN)NC(=O)[C@H](CO)NC(=O)[C@H](CCCCNC(=N)N)NC(=O)CNC(=O)[C@H](CC(=O)O)NC(C)=O)C(=O)N[C@@H](C)C(=O)N[C@@H](Cc1ccc(O)cc1)C(=O)N[C@H](C(=O)N[C@@H](CCC(=O)O)C(=O)N[C@@H](Cc1ccccc1)C(=O)N[C@@H](CCCCN)C(N)=O)[C@@H](C)CC) [P3V14] | No binding | 
6 | Ac-Asp-Gly-Lys-Ser-(Dap)-Gly-Ile-Ala-Tyr-Ile-Glu-Phe-Lys-NH2 (Ac-DGKS[Dap]GIAYIEFK-NH2; SMILES CC[C@H](C)[C@H](NC(=O)CNC(=O)[C@H](CN)NC(=O)[C@H](CO)NC(=O)[C@H](CCCCN)NC(=O)CNC(=O)[C@H](CC(=O)O)NC(C)=O)C(=O)N[C@@H](C)C(=O)N[C@@H](Cc1ccc(O)cc1)C(=O)N[C@H](C(=O)N[C@@H](CCC(=O)O)C(=O)N[C@@H](Cc1ccccc1)C(=O)N[C@@H](CCCCN)C(N)=O)[C@@H](C)CC) [P3V19] | No binding | 
7 | Ac-Asp-Gly-Lys-Ser-(Orn)-Gly-Ile-Ala-Tyr-Ile-Glu-Phe-Lys-NH2 (Ac-DGKS[Orn]GIAYIEFK-NH2) [P3V17] | No binding | 
8 | Ac-Asp-Gly-Lys-Ser-(hArg)-Gly-Ile-Ala-Tyr-Ile-Glu-Phe-Lys-NH2 (Ac-DGKS[hArg]GIAYIEFK-NH2; SMILES CC[C@H](C)[C@H](NC(=O)CNC(=O)[C@H](CCCCNC(=N)N)NC(=O)[C@H](CO)NC(=O)[C@H](CCCCN)NC(=O)CNC(=O)[C@H](CC(=O)O)NC(C)=O)C(=O)N[C@@H](C)C(=O)N[C@@H](Cc1ccc(O)cc1)C(=O)N[C@H](C(=O)N[C@@H](CCC(=O)O)C(=O)N[C@@H](Cc1ccccc1)C(=O)N[C@@H](CCCCN)C(N)=O)[C@@H](C)CC) [P3V15] | No binding | 
9 | DGASKGIAYIEFK [P3MT1] |  | 31.3 ± 8.29 µM
10 | DGKSAGIAYIEFK [P3MT2] |  | 100 µM and 101 µM
11 | DGKSKGIAAIEFK [P3MT3] |  | 16 µM and 16.6 µM
12 | DGKSKGIAWIEFK [P3V2] |  | 2.2 µM and 2.21 µM
13 | DGKSKGIAYIEAK [P3MT4] |  | 17 µM and 17.4 µM
14 | DGKSKGIAYIEFA [P3MT5] |  | 51 µM and 51.3 µM
15 | DGKSKGIAYIEFK [P3V7] |  | 3.67 ± 0.26 µM
16 | DGKSKGIAYIEFKDGKSKGIAYIEFK [P3V20, linear dimer of P3V8] | did not show any binding; also recorded: No binding | 
17 | DGKSKGIAYIEFKGDGKSKGIAYIEFK [P3V21, linear dimer of P3V8] | did not show any binding; also recorded: No binding | 
18 | DGKSKGIAYIEWK [P3V4] |  | 4.44 ± 0.47 µM
19 | DGKSKGIAYIEYK [P3V3] |  | 1.74 ± 0.67 µM
20 | DGRSRGIAYIEFK [P3V5] |  | ~0.86 µM and 0.86 µM
21 | DGRSRGIAYIEFK [P3V9] |  | 2.34 ± 0.49 µM
22 | DGRSRGIAYIEFR [P3V6] |  | 23 µM and 23.3 µM
23 | H-Asp-Gly-Lys-Ser-Lys-Gly-Ile-Ala-Tyr-Ile-Glu-Phe-Lys-tPNA-NH2 (DGKSKGIAYIEFK[tPNA]-NH2; also: Asp N-terminal amino group replaced by hydrogen) [P3V22] | No binding | 
24 | H-Asp-Gly-Lys-Ser-Lys-Gly-Ile-Ala-Tyr-Ile-Glu-Phe-Lys-tPNA-cPNA-gPNA-NH2 (DGKSKGIAYIEFK[tPNA][cPNA][gPNA]-NH2; also: Asp N-terminal amino group replaced by hydrogen) [P3V23] |  | 233 ± 98.9 µM
25 | H-Asp-Gly-Lys-Ser-Lys-Gly-Ile-tPNA-*-Ile-Glu-Phe-Lys-NH2 (H-DGKSKGI[tPNA]IEFK-NH2; not fully specified (residue 8); also: Asp N-terminal amino group replaced by hydrogen) [P3V12] |  | 9.93 ± 2.19 µM
26 | H-aPNA-**-Lys-Ser-Lys-Gly-Ile-Ala-Tyr-Ile-Glu-Phe-Lys-NH2 (H-[aPNA]KSKGIAYIEFK-NH2; not fully specified (residue 1); printed as H-aPNA-**-Lys-Ser-Lys-Gly-Ile-Ala-Tyr-Ile-Glu-Phe-Lys-NH2; also: N-terminal amino group replaced by hydrogen) [P3V25] |  | 8.28 ± 2.27 µM
27 | H-cPNA-gPNA-tPNA-Asp-Gly-Lys-Ser-*-Gly-Ile-Ala-Tyr-Ile-Glu-Phe-Lys-NH2 (H-[cPNA][gPNA][tPNA]DGKSGIAYIEFK-NH2; not fully specified (residue 7); printed as H-cPNA-gPNA-tPNA-Asp-Gly-Lys-Ser-*-Gly-Ile-Ala-Tyr-Ile-Glu-Phe-Lys-NH2; also: N-terminal amino group replaced by hydrogen) [P3V13] |  | 10.8 ± 3.08 µM
28 | H-cptPNA-**-Lys-Ser-Lys-Gly-Ile-Ala-Tyr-Ile-Glu-Phe-Lys-NH2 (H-XKSKGIAYIEFK-NH2; not fully specified (residue 1); printed as H-cptPNA-**-Lys-Ser-Lys-Gly-Ile-Ala-Tyr-Ile-Glu-Phe-Lys-NH2; also: N-terminal amino group replaced by hydrogen) [P3V27] |  | 11.2 ± 4.37 µM
29 | H-gPNA-**-Lys-Ser-Lys-Gly-Ile-Ala-Tyr-Ile-Glu-Phe-Lys-NH2 (H-[gPNA]KSKGIAYIEFK-NH2; not fully specified (residue 1); printed as H-gPNA-**-Lys-Ser-Lys-Gly-Ile-Ala-Tyr-Ile-Glu-Phe-Lys-NH2; also: N-terminal amino group replaced by hydrogen) [P3V26] |  | 8.85 ± 2.85 µM
30 | H-tPNA-**-Lys-Ser-Lys-Gly-Ile-Ala-Tyr-Ile-Glu-Phe-Lys-NH2 (H-[tPNA]KSKGIAYIEFK-NH2; not fully specified (residue 1); printed as H-tPNA-**-Lys-Ser-Lys-Gly-Ile-Ala-Tyr-Ile-Glu-Phe-Lys-NH2; also: N-terminal amino group replaced by hydrogen) [P3V11] |  | 0.12 µM
31 | H-tPNA-Asp-Gly-Lys-Ser-Lys-Gly-Ile-Ala-Tyr-Ile-Glu-Phe-Lys-NH2 ([tPNA]DGKSKGIAYIEFK-NH2; also: N-terminal amino group replaced by hydrogen) [P3V10] |  | 2.2 µM and 2.24 µM
32 | Hi-cPNA-**-Lys-Ser-Lys-Gly-Ile-Ala-Tyr-Ile-Glu-Phe-Lys-NH2 (H-[cPNA][∗∗]KSKGIAYIEFK-NH2; not fully specified; printed as Hi-cPNA-**-Lys-Ser-Lys-Gly-Ile-Ala-Tyr-Ile-Glu-Phe-Lys-NH2; reading uncertain; also: N-terminal amino group replaced by hydrogen) [P3V24] |  | 0.96 µM

same assay, conditions: relative to P3

Row | Substance | improvement of binding affinity to expanded CAG RNA over P3 [fold]
33 | Asp-(d-Ala)-Lys-Ser-Lys-Gly-Ile-Ala-Tyr-Ile-Glu-Phe-Lys (D[dA]KSKGIAYIEFK) [P3V1] | 4
34 | DGKSKGIAYIEWK [P3V4] | ~4
35 | DGKSKGIAYIEYK [P3V3] | ~2
36 | DGRSRGIAYIEFK [P3V5] | ~10
